Our source for the IC50 values is patent US9145392B2, “Imidazole amines as modulators of kinase activity” (Merck Patent GmbH, priority 2011, dated 2015).

Where only a bound is given, the exact number is not on record here.

In one assay the target is P70S6K (T412E mutant) (Homo sapiens (Human), UniProt P23443, T412E). Put plainly: P70S6K enzyme assay. In kind it is biochemical. The note with it: read-out: IC50 p70S6K. Put shortly: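 Phosphorylated product and substrate peptide separated by microfluidic capillary electrophoresis (Caliper LabChip 3000), product peaks resolving before substrate.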
Chain of P70S6K (T412E mutant) (P23443 whole entry T412E): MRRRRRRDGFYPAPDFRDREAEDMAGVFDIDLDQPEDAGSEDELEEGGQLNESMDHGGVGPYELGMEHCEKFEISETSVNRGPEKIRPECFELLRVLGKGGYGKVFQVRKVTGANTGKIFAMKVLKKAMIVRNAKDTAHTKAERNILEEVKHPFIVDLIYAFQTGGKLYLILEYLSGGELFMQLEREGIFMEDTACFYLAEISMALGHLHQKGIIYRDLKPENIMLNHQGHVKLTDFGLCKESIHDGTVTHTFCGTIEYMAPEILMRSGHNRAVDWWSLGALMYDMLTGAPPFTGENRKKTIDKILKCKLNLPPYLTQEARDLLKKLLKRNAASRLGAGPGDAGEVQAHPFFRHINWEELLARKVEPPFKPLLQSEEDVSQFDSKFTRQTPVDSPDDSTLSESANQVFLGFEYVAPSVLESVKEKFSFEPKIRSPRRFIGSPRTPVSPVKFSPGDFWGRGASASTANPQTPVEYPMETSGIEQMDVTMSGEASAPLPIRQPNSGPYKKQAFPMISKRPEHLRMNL
The target in the next assay is His-AKT (Full Length) (Homo sapiens (Human), UniProt P31749). Nature of the assay: AKT enzyme assay. The assay is classed as biochemical. The note with it: read-out: IC50 AKT. As to the method: A TTP Mosquito liquid handling instrument is used to place 125n1 of the appropriate concentration of inhibitor in 100% DMSO (for a dose response curve calculation) into each well of a 384-well plate.
Chain of His-AKT (Full Length) (P31749 whole entry): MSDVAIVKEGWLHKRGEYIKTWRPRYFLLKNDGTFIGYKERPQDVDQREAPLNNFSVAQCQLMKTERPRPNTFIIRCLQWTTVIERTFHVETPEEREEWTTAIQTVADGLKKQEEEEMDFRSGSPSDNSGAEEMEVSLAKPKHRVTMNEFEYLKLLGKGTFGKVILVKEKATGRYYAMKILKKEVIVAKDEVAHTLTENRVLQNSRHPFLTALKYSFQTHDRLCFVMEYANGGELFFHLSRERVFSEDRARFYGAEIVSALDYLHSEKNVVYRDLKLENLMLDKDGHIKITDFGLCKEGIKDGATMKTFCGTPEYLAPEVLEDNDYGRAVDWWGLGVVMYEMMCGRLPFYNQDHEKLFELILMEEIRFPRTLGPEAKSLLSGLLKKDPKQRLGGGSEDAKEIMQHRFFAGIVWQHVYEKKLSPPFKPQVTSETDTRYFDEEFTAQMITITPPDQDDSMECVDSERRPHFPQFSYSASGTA
The reaction is incubated for 90 min at 25 C, and then stopped by the addition of 70 μl of Stop buffer (100 mM HEPES pH 7.5, 0.015% Brij-35, 10 mM EDTA (Sigma, E7889)).
The plate is read on a Caliper LC 3000 in an Off-Chip mobility shift assay format, using the following parameters for a 12-sipper chip: screening pressure −2.3 psi, upstream voltage −500, and downstream voltage −3000. These conditions cause unphosphorylated substrate and phosphorylated product peptide to resolve as separate peaks allowing direct measurement of percentage of conversion of substrate to product. The percent conversion can be plotted against concentration of inhibitor to produce a sigmoidal dose response curve, from which an IC50 can be calculated.

With `CCc1c(N)ncnc1N1CCC(c2nc(-c3ccc(F)c(F)c3)cn2CCN2CC(F)C2)CC1` [Compound 199, 6-(4-{4-(3,4-Difluoro-phenyl)-1-[2-(3-fluoro-azetidin-1-yl)-ethyl]-1H-imidazol-2-yl}-piperidin-1-yl)-5-ethyl-pyrimidin-4-ylamine], the IC50 – broadly, the concentration that inhibits the measured activity by half – at P70S6K (T412E mutant) was determined as 12 nM; on His-AKT (Full Length), 385 nM.

On to `Cn1cc(-c2ccc(F)c(C(F)(F)F)c2)nc1C1CCN(c2ncnc(N)c2-c2cccnc2)CC1` [Compound 53, 6-{4-[4-(4-Fluoro-3-trifluoromethyl-phenyl)-1-methyl-1H-imidazol-2-yl]-piperidin-1-yl}-5-pyridin-3-yl-pyrimidin-4-ylamine], for which the IC50 is 2.3 nM at P70S6K (T412E mutant) and 880 nM at His-AKT (Full Length).

Consider `Cc1cc(-c2cn(CCN3CCC3)c(C3CCN(c4ncnc(N)c4OC(C)C)CC3)n2)ccc1F` [Compound 178, 6-(4-(1-(2-(azetidin-1-yl)ethyl)-4-(4-fluoro-3-methylphenyl)-1H-imidazol-2-yl)piperidin-1-yl)-5-isopropoxypyrimidin-4-amine], for which the figures for the IC50 at P70S6K (T412E mutant) and on His-AKT (Full Length) were 3.9 nM and 2.7 nM, respectively.

`Cc1cc(-c2cn(CC3CNC3)c(C3CCC(c4ncnc(N)c4C(C)C)CC3)n2)ccc1F` (stereo not shown) [Compound 194, 6-(4-(1-(azetidin-3-ylmethyl)-4-(4-fluoro-3-methylphenyl)-1H-imidazol-2-yl)cyclohexyl)-5-isopropylpyrimidin-4-amine]: the concentration for half-maximal inhibition (IC50) is 3.4 nM on P70S6K (T412E mutant) and 16 nM on His-AKT (Full Length).

On to `NC(=O)c1c(N)ncnc1N1CCC(c2nc(-c3ccccc3)cn2CCN2CCC2)CC1` [Compound 136, 4-amino-6-(4-(1-(2-(azetidin-1-yl)ethyl)-4-phenyl-1H-imidazol-2-yl)piperidin-1-yl)pyrimidine-5-carboxamide], for which the IC50 at P70S6K (T412E mutant) was 8.4 nM; on His-AKT (Full Length) it was 1900 nM.

Turning to `N#Cc1c(N)ncnc1N1CCC(c2nc(-c3ccc(OC(F)F)cc3)cn2CCN2CCC2)CC1` [Compound 76, 4-Amino-6-{4-[1-(2-azetidin-1-yl-ethyl)-4-(4-difluoromethoxy-phenyl)-1H-imidazol-2-yl]-piperidin-1-yl}-pyrimidine-5-carbonitrile], the IC50 was found to be 2.1 nM on P70S6K (T412E mutant) and 479 nM at His-AKT (Full Length).

For `N#Cc1c(N)ncnc1N1CCC(c2nc(-c3cccc(S(N)(=O)=O)c3)cn2CCN2CCC2)CC1` [Compound 354, 3-[2-[1-(6-Amino-5-cyano-pyrimidin-4-yl)-piperidin-4-yl]-1-(2-azetidin-1-yl-ethyl)-1H-imidazol-4-yl]-benzenesulfonamide], the IC50 on P70S6K (T412E mutant) and on His-AKT (Full Length) was over 10000 nM throughout.

For the molecule `COc1c(N)ncnc1N1CCC(c2nc(-c3ccc(F)c(C)c3)cn2CC2CNC2)CC1` [Compound 184, 6-(4-(1-(azetidin-3-ylmethyl)-4-(4-fluoro-3-methylphenyl)-1H-imidazol-2-yl)piperidin-1-yl)-5-methoxypyrimidin-4-amine], the IC50 on P70S6K (T412E mutant) came to 0.26 nM; at His-AKT (Full Length), 2.3 nM.

As to `COc1c(N)ncnc1N1CCC(c2nc(-c3ccc(F)c(C(F)(F)F)c3)cn2CCN2CCC2)CC1` [Compound 97, 6-(4-(1-(2-(azetidin-1-yl)ethyl)-4-(4-fluoro-3-(trifluoromethyl)phenyl)-1H-imidazol-2-yl)piperidin-1-yl)-5-methoxypyrimidin-4-amine], the IC50 at P70S6K (T412E mutant) was determined as 2.2 nM; at His-AKT (Full Length), 6.1 nM.

Turning to `N#Cc1c(N)ncnc1N1CCC(c2nc(-c3ccc(F)c(C(F)(F)F)c3)cn2CC2CNC2)CC1` [Compound 141, 4-amino-6-(4-(1-(azetidin-3-ylmethyl)-4-(4-fluoro-3-(trifluoromethyl)phenyl)-1H-imidazol-2-yl)piperidin-1-yl)pyrimidine-5-carbonitrile], the IC50 on P70S6K (T412E mutant) was determined as 13 nM; at His-AKT (Full Length), 64.5 nM.

Consider `Cn1cc(-c2ccc(F)c(C(F)(F)F)c2)nc1C1CCN(c2ncnc(N)c2-c2ccc(N)nc2)CC1` [Compound 40, 5-(6-Amino-pyridin-3-yl)-6-{4-[4-(4-fluoro-3-trifluoromethyl-phenyl)-1-methyl-1H-imidazol-2-yl]-piperidin-1-yl}-pyrimidin-4-ylamine], for which the IC50 is 2.3 nM at P70S6K (T412E mutant) and 2700 nM at His-AKT (Full Length).
